Paper PMC6437697 (Journal of Medicinal Chemistry, 2019)

Legend:
Experiment in all cases: KINOMEscan
Format in all cases: binding
Settings in all cases: read-out: % control activity remaining
[1] = target: T1, STK36 (Homo sapiens, UniProt Q9NRP7)
T1 construct: purchased Eurofins DiscoverX KINOMEscan
T1 sequence (Q9NRP7 1-1315): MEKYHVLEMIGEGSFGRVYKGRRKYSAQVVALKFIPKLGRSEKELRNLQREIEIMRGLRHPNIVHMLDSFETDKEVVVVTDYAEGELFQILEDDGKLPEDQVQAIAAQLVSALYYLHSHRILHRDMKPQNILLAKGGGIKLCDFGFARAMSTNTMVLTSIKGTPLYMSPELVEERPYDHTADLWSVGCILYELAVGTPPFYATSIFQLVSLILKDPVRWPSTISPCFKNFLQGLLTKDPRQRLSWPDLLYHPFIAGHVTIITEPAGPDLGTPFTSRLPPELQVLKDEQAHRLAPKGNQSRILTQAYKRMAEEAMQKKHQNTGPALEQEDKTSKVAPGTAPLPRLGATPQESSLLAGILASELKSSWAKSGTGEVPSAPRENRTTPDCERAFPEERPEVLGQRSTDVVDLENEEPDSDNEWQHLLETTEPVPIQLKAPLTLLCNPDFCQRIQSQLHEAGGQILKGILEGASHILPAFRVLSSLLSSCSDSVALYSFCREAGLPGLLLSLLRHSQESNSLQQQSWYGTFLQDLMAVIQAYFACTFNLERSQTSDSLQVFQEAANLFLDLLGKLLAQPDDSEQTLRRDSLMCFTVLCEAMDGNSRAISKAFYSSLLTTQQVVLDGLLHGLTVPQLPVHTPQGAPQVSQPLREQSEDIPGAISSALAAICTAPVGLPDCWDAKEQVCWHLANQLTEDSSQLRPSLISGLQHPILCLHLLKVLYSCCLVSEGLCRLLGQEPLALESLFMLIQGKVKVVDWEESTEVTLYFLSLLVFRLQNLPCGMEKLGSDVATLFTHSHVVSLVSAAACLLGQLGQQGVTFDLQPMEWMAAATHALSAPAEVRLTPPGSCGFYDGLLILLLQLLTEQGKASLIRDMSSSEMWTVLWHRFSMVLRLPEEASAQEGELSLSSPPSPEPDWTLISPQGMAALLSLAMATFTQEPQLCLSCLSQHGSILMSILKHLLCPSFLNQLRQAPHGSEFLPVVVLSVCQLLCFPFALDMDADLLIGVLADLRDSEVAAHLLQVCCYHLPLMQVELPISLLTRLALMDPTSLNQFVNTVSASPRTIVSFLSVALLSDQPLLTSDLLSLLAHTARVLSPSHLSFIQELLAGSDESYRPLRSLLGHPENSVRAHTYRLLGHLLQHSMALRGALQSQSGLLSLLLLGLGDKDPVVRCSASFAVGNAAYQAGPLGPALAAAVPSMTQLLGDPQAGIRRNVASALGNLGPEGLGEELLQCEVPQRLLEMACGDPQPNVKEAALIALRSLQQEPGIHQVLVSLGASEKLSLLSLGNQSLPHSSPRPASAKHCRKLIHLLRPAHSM

[2] = target: T2, PRKD3 (Homo sapiens, UniProt O94806)
T2 construct: purchased Eurofins DiscoverX KINOMEscan
T2 sequence (O94806 1-890): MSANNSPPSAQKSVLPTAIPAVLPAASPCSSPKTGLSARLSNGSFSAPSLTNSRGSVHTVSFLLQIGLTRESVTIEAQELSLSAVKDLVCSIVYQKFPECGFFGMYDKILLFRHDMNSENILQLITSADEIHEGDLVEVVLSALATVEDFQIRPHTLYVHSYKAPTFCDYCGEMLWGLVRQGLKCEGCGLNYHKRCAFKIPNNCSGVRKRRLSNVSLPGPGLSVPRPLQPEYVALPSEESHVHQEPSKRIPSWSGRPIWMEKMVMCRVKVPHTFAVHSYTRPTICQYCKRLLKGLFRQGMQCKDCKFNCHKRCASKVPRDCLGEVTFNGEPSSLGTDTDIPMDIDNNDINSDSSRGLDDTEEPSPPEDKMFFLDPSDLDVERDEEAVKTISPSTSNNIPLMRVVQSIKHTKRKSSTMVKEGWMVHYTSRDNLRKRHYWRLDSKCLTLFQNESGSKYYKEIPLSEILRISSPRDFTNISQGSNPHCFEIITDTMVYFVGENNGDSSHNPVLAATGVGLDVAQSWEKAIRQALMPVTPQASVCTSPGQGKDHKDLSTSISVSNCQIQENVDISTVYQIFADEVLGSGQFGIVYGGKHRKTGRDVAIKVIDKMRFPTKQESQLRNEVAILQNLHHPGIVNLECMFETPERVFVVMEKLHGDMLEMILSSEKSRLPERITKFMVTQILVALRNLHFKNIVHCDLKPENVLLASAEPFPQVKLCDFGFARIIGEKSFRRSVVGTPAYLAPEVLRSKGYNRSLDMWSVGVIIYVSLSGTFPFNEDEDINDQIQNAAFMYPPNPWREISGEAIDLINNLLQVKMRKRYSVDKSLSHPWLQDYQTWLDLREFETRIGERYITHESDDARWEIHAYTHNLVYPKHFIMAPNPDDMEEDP

[3] = target: T3, PKMYT1 (Homo sapiens, UniProt Q99640)
T3 construct: purchased Eurofins DiscoverX KINOMEscan
T3 sequence (Q99640 1-499): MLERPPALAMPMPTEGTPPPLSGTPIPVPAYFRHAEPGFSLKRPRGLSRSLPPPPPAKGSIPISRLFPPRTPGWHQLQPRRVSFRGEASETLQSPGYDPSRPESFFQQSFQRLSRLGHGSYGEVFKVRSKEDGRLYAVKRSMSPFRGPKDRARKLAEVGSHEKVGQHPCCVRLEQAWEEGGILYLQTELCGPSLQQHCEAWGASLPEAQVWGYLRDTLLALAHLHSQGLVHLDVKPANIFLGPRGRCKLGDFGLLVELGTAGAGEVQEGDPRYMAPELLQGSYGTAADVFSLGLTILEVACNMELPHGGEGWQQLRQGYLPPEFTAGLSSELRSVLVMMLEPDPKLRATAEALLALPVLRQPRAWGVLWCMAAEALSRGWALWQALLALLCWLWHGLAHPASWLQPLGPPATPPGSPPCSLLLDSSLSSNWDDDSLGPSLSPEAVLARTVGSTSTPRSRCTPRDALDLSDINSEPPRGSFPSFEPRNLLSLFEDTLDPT

Compound	remaining binding at 1 µM [1] [%]	remaining binding at 1 µM [2] [%]	remaining binding at 1 µM [3] [%]
Clc1cc(NCC2CC2)c2ncc(-c3ccc4[nH]ncc4c3)n2n1 [compound 2, 6-Chloro-N-(cyclopropylmethyl)-3-(1H-indazol-5-yl)imidazo[1,2-b]pyridazin-8-amine]	91	98	81
O=C(CN1CCOCC1)N[C@H]1CC[C@H](Nc2cc(Cl)nn3c(-c4ccc5[nH]ncc5c4)cnc23)CC1 [compound 26]	95	94	94
CN1CCC(CNc2cc(Cl)nn3c(-c4cc5nc(Nc6ccccc6)[nH]c5cc4F)cnc23)CC1 [compound 31, 6-Chloro-3-(6-fluoro-2-(phenylamino)-1H-benzo[d]imidazol-5-yl)-N-((1-methylpiperidin-4-yl)methyl)imidazo[1,2-b]pyridazin-8-amine]	93	100	100
